# Source: patent US8653261B2, “Modified actinomycin-based nucleic acid stains and methods of their use” (priority 2008, dated 2014)
# Key:
# dead cells = details: dead cell identification; cited from earlier work
# fixed cells = details: cited from earlier work
# HeLa cells = test: High content imaging of stained HeLa cells with valinomycin treatment; type: cell-based; details: for killing of HeLa cells: 24 hours
# Protocol: HeLa cells were either untreated or treated with two concentrations (15 μM and 120 μM) of valinomycin (VLM) as a killing agent for 24 hours before labeling with Compound 7 and with the nuclear counterstain Hoechst 33342 dye (Invitrogen Corporation, Carlsbad, Calif.). At 24 hours of treatment, normal cell growth medium containing 2× final concentration of Hoechst 33342 and Compound 7 was added to the existing medium to result in 1× final concentration. Cells were incubated for 30 minutes at 37° C. and then the drug/dye mixture was replaced with PBS for imaging using a high content automated imaging system (ArrayScan VTI from Thermo/Fisher) using a Texas Red filter set.
# Jurkat T cells = test: Imaging flow cytometry of stained Jurkat cells with camptothecin treatment; type: cell-based; details: 1 μM camptothecin, 4 hours
# Protocol: Jurkat T cells were incubated in the presence or absence of 1 μM camptothecin (CPT) for 4 hours to induce apoptosis, then stained with 2.5 μM Compound 7 for 15 minutes at room temperature and analyzed on an AMNIS ImageStream multispectral imaging flow cytometer. Gating on 10,000 collected events with intermediate brightfield (BF) area and high BF aspect ratio (width:height) was performed to distinguish single cells from debris and multi-cellular clumps. Cells with nuclear dye uptake were gated (R3) on the Intensity 180 plot. Cells untreated with camptothecin are shown in the top middle histogram of FIG. 3, with 8.0% stain positive (dead cells) as identified in the R3 gate. The positively stained cells show typical brightfield morphology of dead cells, while the cells negative (live cells) show typical brightfield morphology of live cells.
# Cells treated with the apoptotic inducing agent camptothecin (FIG. 3B) (bottom middle histogram), with 68.4% stain positive as identified in the R3 gate. The positively stained cells show typical brightfield morphology of dead cells and stained nuclei typical of apoptosis and cell death that is condensed and fragmented, while the cells negative for staining (live cells) show typical brightfield morphology of live cells. […] Cells negative for stain show morphology typical of healthy cells.
compound,measurement,setting,value
"Cc1c2oc3c(C)c(N)cc(C(=O)N[C@@H]4C(=O)N[C@H](C(C)C)C(=O)N5CCC[C@H]5C(=O)N(C)CC(=O)N(C)[C@@H](C(C)C)C(=O)O[C@@H]4C)c3nc-2c(C(=O)N[C@@H]2C(=O)N[C@H](C(C)C)C(=O)N3CCC[C@H]3C(=O)N(C)CC(=O)N(C)[C@@H](C(C)C)C(=O)O[C@@H]2C)c(N)c1=O [Compound 7-AAD, 7-aminoactinomycin D]",time of staining process to fully equilibrate,dead cells,about 30 minutes
same,variability of DNA content cell cycle histogram (% CV of the G0G1 peak),fixed cells,high degree of variability
CCOc1ccc(-c2nc3ccc(-c4nc5ccc(N6CCN(C)CC6)cc5[nH]4)cc3[nH]2)cc1 [Hoechst 33342],nuclear counterstain labeling of HeLa cells,HeLa cells; untreated or valinomycin-treated cells,labeling both live and dead cells
CC[C@@]1(O)C(=O)OCc2c1cc1n(c2=O)Cc2cc3ccccc3nc2-1 [camptothecin],cell death measurable by staining with Compound 7,Jurkat T cells,induced significant cell death
CC(C)[C@@H]1NC(=O)[C@H](C)OC(=O)[C@@H](C(C)C)NC(=O)[C@@H](C(C)C)OC(=O)[C@H](C(C)C)NC(=O)[C@H](C)OC(=O)[C@@H](C(C)C)NC(=O)[C@@H](C(C)C)OC(=O)[C@H](C(C)C)NC(=O)[C@H](C)OC(=O)[C@@H](C(C)C)NC(=O)[C@@H](C(C)C)OC1=O [valinomycin],killing of HeLa cells,HeLa cells; 15 μM valinomycin,less effective in killing HeLa cells
same,killing of HeLa cells,HeLa cells; 120 μM valinomycin,effective in killing HeLa cell
